Experimental data from patent US9090593B2, “Bicyclic compounds as Pim inhibitors” (AMGEN INC., priority 2010, dated 2015).
Read-outs that look alike come from different tables or passages of the source.

What was measured:
[1] = target: T1, Pim-1 stably transfected into the U2OS human osteogenic sarcoma line (Homo sapiens, UniProt P11309); test: Pim cell assay, phospho-BAD normalized against total BAD, U2OS stably transfected with Pim-1; type: cell-based; conditions: read-out: Pim1_Cell_IC50
T1 construct: expressed in transfected cells; host or cells: U2OS human osteogenic sarcoma line
T1 sequence (P11309 whole entry): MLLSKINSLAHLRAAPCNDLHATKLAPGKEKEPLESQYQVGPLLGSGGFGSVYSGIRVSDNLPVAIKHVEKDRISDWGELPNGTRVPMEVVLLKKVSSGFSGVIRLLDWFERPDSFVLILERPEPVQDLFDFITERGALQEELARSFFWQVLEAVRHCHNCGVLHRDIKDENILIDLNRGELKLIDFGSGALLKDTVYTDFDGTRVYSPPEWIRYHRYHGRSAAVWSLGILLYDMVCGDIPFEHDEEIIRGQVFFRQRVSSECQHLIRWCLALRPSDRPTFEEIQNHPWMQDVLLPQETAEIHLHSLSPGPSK
How it was run: (§1)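 Read-out is phospho-BAD relative to total BAD, by MSD electrochemiluminescence on lysates, expressed as % phosphoprotein = (2×phospho)/(phospho+total)×100. Engineered U2OS lines carrying stably transfected Pim-1 or Pim-2 received 10-point compound dilutions at 0.3% final DMSO after overnight culture at 37 °C; DMSO-only wells served as high control.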

[2] = target: T2, full length recombinant Pim-1 protein (Homo sapiens, UniProt P11309); test: Pim-1 enzyme assay (HTRF, phosphorylation of biotinylated-BAD (S112) peptide); type: biochemical; conditions: enzyme assay, Pim-1; read-out: Pim_1_IC50
T2 construct: by full length recombinant Pim-1, Pim-2, or Pim-3 protein; hexahistidine tag followed by a thrombin cleavage site (N); made in house; host or cells: Sf9 (baculovirus) or E. coli (pET28)
T2 sequence (P11309 whole entry): as above
How it was run: (§2)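 HTRF read-out: Eu-labelled anti-phospho-BAD (S112) antibody plus streptavidin-APC detect phosphorylated biotin-BAD peptide. Enzymes were full-length recombinant human Pim-1 and Pim-2; buffer 60 mM Hepes pH 7.0, 0.05% BSA, 2 mM DTT; reactions quenched with 3 mM EDTA. Percent-of-control data fitted to a 4-parameter logistic for IC50.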

[3] = target: T3, full length recombinant Pim-2 protein (Homo sapiens, UniProt Q9P1W9); test: Pim-2 enzyme assay (HTRF, phosphorylation of biotinylated-BAD (S112) peptide); type: biochemical; conditions: enzyme assay, Pim-2; read-out: Pim2_IC50
T3 construct: by full length recombinant Pim-1, Pim-2, or Pim-3 protein; hexahistidine tag followed by a thrombin cleavage site (N); made in house; host or cells: Sf9 (baculovirus) or E. coli (pET28)
T3 sequence (Q9P1W9 whole entry): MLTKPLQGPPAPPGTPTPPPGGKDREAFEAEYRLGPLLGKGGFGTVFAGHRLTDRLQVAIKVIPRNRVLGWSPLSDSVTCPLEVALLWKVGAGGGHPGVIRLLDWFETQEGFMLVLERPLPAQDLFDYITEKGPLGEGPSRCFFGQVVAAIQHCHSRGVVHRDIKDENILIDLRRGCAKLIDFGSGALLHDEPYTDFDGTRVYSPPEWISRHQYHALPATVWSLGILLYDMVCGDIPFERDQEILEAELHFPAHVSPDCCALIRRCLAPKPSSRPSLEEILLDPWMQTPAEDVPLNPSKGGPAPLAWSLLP
How it was run: as §2

[4] = target: T4, Pim-2 stably transfected into the U2OS human osteogenic sarcoma line (Homo sapiens, UniProt Q9P1W9); test: Pim cell assay, phospho-BAD normalized against total BAD, U2OS stably transfected with Pim-2; type: cell-based; conditions: read-out: Pim2_Cell_IC50; note: high dose 31.6 µM
T4 construct: expressed in transfected cells; host or cells: U2OS human osteogenic sarcoma line
T4 sequence (Q9P1W9 whole entry): as above
How it was run: as §1

[5] = target: T5, full length recombinant Pim-3 protein (Homo sapiens, UniProt Q86V86); test: Pim-3 enzyme assay (HTRF, phosphorylation of biotinylated-BAD (S112) peptide); type: biochemical; conditions: read-out: Pim3 IC50
T5 construct: by full length recombinant Pim-1, Pim-2, or Pim-3 protein; purchased Millipore (UK)
How it was run: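 HTRF read-out, streptavidin-APC plus Eu-labelled anti-phospho-BAD (S112) antibody, measures BAD peptide phosphorylation by full-length recombinant Pim-3. Buffer: 60 mM Hepes pH 7.0, 2 mM DTT, 0.05% BSA; EDTA (3 mM) stop. Percent of control per well, IC50 by 4-parameter logistic fit.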

[6] = U2OS cells stably transfected with Pim-1, phospho-BAD, high dose […]
[7] = U2OS cells stably transfected with Pim-2, phospho-BAD, high dose […]

Structure (SMILES)	IC50 [1, 6] [nM]	IC50 [2] [nM]	IC50 [3] [nM]	IC50 [4, 7] [nM]	IC50 [5] [nM]	IC50 [1] [nM]	IC50 [4] [nM]
NC1CCN(c2cncc(-c3n[nH]c4ccc(-c5ccccc5Cl)cc34)n2)CC1 [Example 83, 1-(6-(5-(2-chlorophenyl)-1H-indazol-3-yl)-2-pyrazinyl)-4-piperidinamine]	1420	10	34	22100	4	–	–
NC1CCN(c2cncc(-c3n[nH]c4ccc(-c5cc([N+](=O)[O-])ccc5F)cc34)n2)CC1 [Example 84, 1-(6-(5-(2-fluoro-5-nitrophenyl)-1H-indazol-3-yl)-2-pyrazinyl)-4-piperidinamine]	253	9	45	> 31600	4	–	–
NC1CCN(c2cncc(-c3n[nH]c4ccc(-c5cncc(F)c5)cc34)n2)CC1 [Example 85, 1-(6-(5-(5-fluoro-3-pyridinyl)-1H-indazol-3-yl)-2-pyrazinyl)-4-piperidinamine]	176	5	36	7020	1	–	–
NC1CCN(c2cncc(-c3n[nH]c4ccc(-c5cncnc5)cc34)n2)CC1 [Example 87, 1-(6-(5-(5-pyrimidinyl)-1H-indazol-3-yl)-2-pyrazinyl)-4-piperidinamine]	569	12	43	> 31600	5	–	–
CN1CCN(c2ccc3[nH]nc(-c4cncc(N5CCC(N)CC5)n4)c3c2)C1=O [Example 92, 1-(3-(6-(4-amino-1-piperidinyl)-2-pyrazinyl)-1H-indazol-5-yl)-3-methyl-2-imidazolidinone]	–	9	57	–	5	2230	> 31600
Nc1ncc(-c2ccc3[nH]nc(-c4cncc(N5CCC(N)CC5)n4)c3c2)cn1 [Example 97, 5-(3-(6-(4-amino-1-piperidinyl)-2-pyrazinyl)-1H-indazol-5-yl)-2-pyrimidinamine]	3030	3	27	> 31600	1	–	–
NC1CCN(c2cncc(-c3n[nH]c4ccc(-c5cn6ccnc6cn5)cc34)n2)CC1 [Example 99, 1-(6-(5-imidazo[1,2-a]pyrazin-6-yl-1H-indazol-3-yl)-2-pyrazinyl)-4-piperidinamine]	4720	3	57	> 31600	5	–	–
COc1ccc2c(-c3ccc4[nH]nc(-c5cncc(N6CCC(N)CC6)n5)c4c3)ccnc2c1 [Example 101, 1-(6-(5-(7-methoxy-4-quinolinyl)-1H-indazol-3-yl)-2-pyrazinyl)-4-piperidinamine]	269	4	55	> 31600	10	–	–
COc1cncc(-c2ccc3[nH]nc(-c4cncc(O[C@@H]5CCCNC5)n4)c3c2)c1 [Example 114, 5-(5-methoxy-3-pyridinyl)-3-(6-((3R)-3-piperidinyloxy)-2-pyrazinyl)-1H-indazole]	172	6	77	8500	12	–	–
Fc1cncc(-c2ccc3[nH]nc(-c4cncc(O[C@@H]5CCCNC5)n4)c3c2)c1 [Example 115, 5-(5-fluoro-3-pyridinyl)-3-(6-((3R)-3-piperidinyloxy)-2-pyrazinyl)-1H-indazole]	958	33	155	> 31600	20	–	–
c1cc2cc(-c3ccc4[nH]nc(-c5cncc(O[C@@H]6CCCNC6)n5)c4c3)cnc2[nH]1 [Example 121, 3-(6-((3R)-3-piperidinyloxy)-2-pyrazinyl)-5-(1H-pyrrolo[2,3-b]pyridin-5-yl)-1H-indazole]	157	3	23	3010	5	–	–
CC(C)NC(=O)c1ccc(F)c(-c2ccc3[nH]nc(-c4cncc(O[C@@H]5CCCNC5)n4)c3c2)c1 [Example 122, 4-fluoro-N-(1-methylethyl)-3-(3-(6-((3R)-3-piperidinyloxy)-2-pyrazinyl)-1H-indazol-5-yl)benzamide]	287	16	14	1850	20	–	–
CC(C)c1ccnc(-c2ccc3[nH]nc(-c4cncc(O[C@@H]5CCCNC5)n4)c3c2)n1 [Example 126, 5-(4-(1-methylethyl)-2-pyrimidinyl)-3-(6-((3R)-3-piperidinyloxy)-2-pyrazinyl)-1H-indazole]	563	13	161	> 31600	6	–	–
c1cc(C2CC2)nc(-c2ccc3[nH]nc(-c4cncc(O[C@@H]5CCCNC5)n4)c3c2)n1 [Example 127, 5-(4-cyclopropyl-2-pyrimidinyl)-3-(6-((3R)-3-piperidinyloxy)-2-pyrazinyl)-1H-indazole]	1020	13	67	> 31600	6	–	–
COc1cccc(-c2ccc3[nH]nc(-c4cncc(O[C@@H]5CCCNC5)n4)c3c2)c1F [Example 131, 5-(2-fluoro-3-methoxyphenyl)-3-(6-((3R)-3-piperidinyloxy)-2-pyrazinyl)-1H-indazole]	151	2	15	8910	5	–	–

Other lines, results leading:

IC50 [1, 6] [nM]	IC50 [2] [nM]	IC50 [3] [nM]	IC50 [4, 7] [nM]	IC50 [5] [nM]	IC50 [1] [nM]	IC50 [4] [nM]	Structure (SMILES)
395	2	29	7170	3	–	–	Nc1cccc(-c2ccc3[nH]nc(-c4cncc(N5CCC(N)CC5)n4)c3c2)c1 [Example 81, 1-(6-(5-(3-aminophenyl)-1H-indazol-3-yl)-2-pyrazinyl)-4-piperidinamine]
328	6	60	20300	2	–	–	COc1cc(OC)cc(-c2ccc3[nH]nc(-c4cncc(N5CCC(N)CC5)n4)c3c2)c1 [Example 86, 1-(6-(5-(3,5-dimethoxyphenyl)-1H-indazol-3-yl)-2-pyrazinyl)-4-piperidinamine]
1190	48	685	> 31600	57	–	–	NC1CCN(c2cncc(-c3n[nH]c4ccc(-c5ccccn5)cc34)n2)CC1 [Example 88, 1-(6-(5-(2-pyridinyl)-1H-indazol-3-yl)-2-pyrazinyl)-4-piperidinamine]
747	23	196	> 31600	40	–	–	NC1CCN(c2cncc(-c3n[nH]c4ccc(N5CCCCC5)cc34)n2)CC1 [Example 90, 1-(6-(5-(1-piperidinyl)-1H-indazol-3-yl)-2-pyrazinyl)-4-piperidinamine]
487	13	> 1000	> 31600	82	–	–	CC(C)(C)C(=O)Nc1cccc(-c2ccc3[nH]nc(-c4cncc(N5CCC(N)CC5)n4)c3c2)n1 [Example 93, N-(6-(3-(6-(4-amino-1-piperidinyl)-2-pyrazinyl)-1H-indazol-5-yl)-2-pyridinyl)-2,2-dimethylpropanamide]
384	5	82	> 31600	3	–	–	NC1CCN(c2cncc(-c3n[nH]c4ccc(-c5ccc6cc[nH]c6n5)cc34)n2)CC1 [Example 95, 1-(6-(5-(1H-pyrrolo[2,3-b]pyridin-6-yl)-1H-indazol-3-yl)-2-pyrazinyl)-4-piperidinamine]
1250	1	18	> 31600	2	–	–	Nc1cc(-c2ccc3[nH]nc(-c4cncc(N5CCC(N)CC5)n4)c3c2)ccn1 [Example 100, 4-(3-(6-(4-amino-1-piperidinyl)-2-pyrazinyl)-1H-indazol-5-yl)-2-pyridinamine]
199	2	20	5000	3	–	–	NC1CCN(c2cncc(-c3n[nH]c4ccc(-c5ccncc5)cc34)n2)CC1 [Example 102, 1-(6-(5-(4-pyridinyl)-1H-indazol-3-yl)-2-pyrazinyl)-4-piperidinamine]
208	7	25	9240	8	–	–	CN1CCOc2cc(-c3ccc4[nH]nc(-c5cncc(O[C@@H]6CCCNC6)n5)c4c3)cnc21 [Example 130, 4-methyl-7-(3-(6-((3R)-3-piperidinyloxy)-2-pyrazinyl)-1H-indazol-5-yl)-3,4-dihydro-2H-pyrido[3,2-b][1,4]oxazine]
